Data from US11224577B2, “Treating infection by a platelet-targeting microbe using nanoparticles” (The Regents of the University of California, priority 2015, dated 2022).

Type: physicochemical
Method: 100 nm polymeric cores were prepared using 0.67 dL g^−1 carboxyl-terminated 50:50 poly(lactic-co-glycolic) acid (PLGA) (LACTEL Absorbable Polymers) in a nanoprecipitation process. 1 mL of 10 mg mL^−1 PLGA solution in acetone was added dropwise to 3 mL of water. For fluorescently labeled nanoformulations, 1,1′-dioctadecyl-3,3,3′,3′-tetramethylindodicarbocyanine perchlorate (DiD, ex=644 nm/em=665 nm, Life Technologies) was loaded into the polymeric cores at 0.1 wt %. The mixture was then stirred in open air for 1 h and placed in vacuum for another 3 h. The resulting nanoparticle solution was filtered with 10 kDa MWCO Amicon Ultra-4 Centrifugal Filters (Millipore). Platelet membrane cloaking was then accomplished by dispersing and fusing platelet membrane vesicles with PLGA particles via sonication using an FS30D bath sonicator at a frequency of 42 kHz and a power of 100 W for 2 min. […] The nanoparticle solutions were subject to either a freeze-thaw cycle or lyophilization followed by resuspension. The resulting particle solution was then monitored for particle size using DLS. […] RBCNPs were prepared using the same polymeric cores and RBC membranes of equivalent total surface area to the platelet membranes using a previously described protocol^16.

## PNPs
  colloidal stability: Improved colloidal stability
  size and stability after storage: retain their size and stability
